What all share (assay type): biochemical
One assay deals with T1, DYRK1A (Homo sapiens, UniProt Q13627).
T1 construct: purchased Carna Biosciences, Inc. 04-130
The experiment in a line: Inhibition test on activity of DYRK family, mobility shift assay (MSA): DYRK1A. A digest of the protocol:
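IC50 derived by regressing inhibition rate on log compound concentration, using P/(P+S) peak ratios from electrophoretic separation. DYRK1A enzyme solution 0.2 ng/μL, substrate mix with 4 μM FITC-DYRKtide and 100 μM ATP, pH 7.5 HEPES; reaction run 1 h at room temperature.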

The target of the next assay is T2, DYRK1B (Homo sapiens, UniProt Q9Y463).
T2 construct: purchased Carna Biosciences, Inc. 04-131
T2 sequence (Q9Y463 whole entry): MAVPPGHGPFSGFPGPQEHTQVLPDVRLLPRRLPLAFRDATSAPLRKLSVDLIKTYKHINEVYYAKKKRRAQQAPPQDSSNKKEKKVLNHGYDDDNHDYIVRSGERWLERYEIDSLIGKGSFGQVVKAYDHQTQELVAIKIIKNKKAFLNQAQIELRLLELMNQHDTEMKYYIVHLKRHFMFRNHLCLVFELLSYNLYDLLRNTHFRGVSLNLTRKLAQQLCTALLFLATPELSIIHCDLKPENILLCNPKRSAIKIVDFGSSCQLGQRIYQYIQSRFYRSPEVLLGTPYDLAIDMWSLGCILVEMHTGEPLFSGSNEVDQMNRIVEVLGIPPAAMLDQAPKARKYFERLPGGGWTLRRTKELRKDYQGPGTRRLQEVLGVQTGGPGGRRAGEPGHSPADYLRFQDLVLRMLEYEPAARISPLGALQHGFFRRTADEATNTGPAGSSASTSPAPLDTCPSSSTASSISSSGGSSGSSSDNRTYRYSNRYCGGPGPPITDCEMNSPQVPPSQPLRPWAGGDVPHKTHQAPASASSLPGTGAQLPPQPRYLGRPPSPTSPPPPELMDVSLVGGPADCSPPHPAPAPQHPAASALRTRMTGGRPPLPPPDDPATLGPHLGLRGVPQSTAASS
The experiment in a line: Inhibition test on activity of DYRK family, mobility shift assay (MSA): DYRK1B. On the procedure:
[Inhibition Test on Activity of DYRK Family (DYRK1A, DYRK1B, DYRK2, and DYRK3)]
The kinase activity was measured by mobility shift assay (MSA) method using QuickScout Screening Assist™ MSA (commercially available kit manufactured by Carna Biosciences, Inc.). The substrate of the kinase reaction used was an FITC-labeled DYRKtide peptide included in the kit. An assay buffer [20 mM HEPES, 0.01% Triton X-100™, 2 mM dithiothreitol, pH 7.5]was used to create a substrate mixture solution with a substrate (4 μM), MgCl2(20 mM), and ATP (DYRK1A: 100 μM; DYRK1B: 200 μM; DYRK2: 40 μM; and DYRK3: 20 μM). In addition, kinases (DYRK1A: manufactured by Carna Biosciences, Inc., Cat. No. 04-130; DYRK1B: manufactured by Carna Biosciences, Inc., Cat. No. 04-131; DYRK2; manufactured by Carna Biosciences, Inc., Cat. No. 04-132; and DYRK3; manufactured by Carna Biosciences, Inc., Cat. No. 04-133) were diluted with the assay buffer to prepare enzyme solutions (DYRK1A: 0.2 ng/μL; DYRK1B: 0.08 ng/μL; DYRK2: 0.04 ng/μL; and DYRK3: 0.25 ng/μL). The 10 mM solution of the test compound in DMSO was further diluted with DMSO to 10 levels of the concentration (0.00003 mM, 0.0001 mM, 0.0003 mM, 0.001 mM, 0.003 mM, 0.01 mM, 0.03 mM, 0.1 mM, 0.3 mM, and 1 mM), each of which was subjected to 25-fold dilution with the assay buffer to obtain a drug solution (4% DMSO solution). 5 μL of the drug solution or a control solution (4% DMSO-assay buffer), 5 μL of the substrate mixture solution, and 10 μL of the enzyme solution were mixed in the wells of a polypropylene 384-well plate and allowed to react at room temperature for 1 hour, and then the reaction was quenched by adding 60 μL of the termination buffer included in the kit. Subsequently, the quantities of the substrates (S) and the phosphorylated substrate (P) in the reaction solution were measured using LabChip EZ Reader II system (manufactured by Caliper Life Sciences) according to the protocol of the assay kit.
The heights of the peaks of the “substrate” and the “phosphorylated substrate” were expressed as S and P, respectively, and a blank containing the assay buffer instead of the enzyme solution was also measured.
The inhibition rate (%) of the test compound was calculated according to the following equation:
Inhibition rate (%)=(1−(C−A)/(B−A))×100 • wherein, A, B, and C represent P/(P+S) of the blank well, P/(P+S) of the control solution well, and P/(P+S) of the compound-containing well, respectively.
The IC50 value was calculated via a regression analysis of the inhibition rate and the test compound concentration (logarithmic value).
The inhibiting activities of representative compounds of the present invention are shown against DYRK1A, DYRK1B, DYRK2, and DYRK3 in Tables.

In a further assay the target is T3, DYRK2 (Homo sapiens, UniProt Q92630).
T3 construct: purchased Carna Biosciences, Inc. 04-132
T3 sequence (Q92630 74-601 limits assumed): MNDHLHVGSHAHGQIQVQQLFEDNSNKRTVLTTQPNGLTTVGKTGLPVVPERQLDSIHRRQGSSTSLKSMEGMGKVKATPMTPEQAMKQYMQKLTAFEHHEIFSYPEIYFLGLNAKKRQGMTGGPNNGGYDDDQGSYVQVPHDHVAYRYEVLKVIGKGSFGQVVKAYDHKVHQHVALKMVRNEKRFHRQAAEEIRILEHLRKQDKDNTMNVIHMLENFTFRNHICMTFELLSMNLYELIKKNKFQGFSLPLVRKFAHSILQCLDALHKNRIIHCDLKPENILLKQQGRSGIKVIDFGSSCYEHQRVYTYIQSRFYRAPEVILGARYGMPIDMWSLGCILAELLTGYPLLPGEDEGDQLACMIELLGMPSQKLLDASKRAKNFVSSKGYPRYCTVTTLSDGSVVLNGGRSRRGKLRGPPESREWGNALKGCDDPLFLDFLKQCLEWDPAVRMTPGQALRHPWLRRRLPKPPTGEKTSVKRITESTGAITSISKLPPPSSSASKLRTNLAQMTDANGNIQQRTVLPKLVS
The experiment in a line: Inhibition test on activity of DYRK family, mobility shift assay (MSA): DYRK2. A digest of the protocol: (§1)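 Reactions ran 1 h at room temperature in HEPES buffer pH 7.5 with FITC-DYRKtide as substrate. ATP in the substrate mix was 100 µM for DYRK1A, 200 µM for DYRK1B, 40 µM for DYRK2 and 20 µM for DYRK3. Phosphorylated and unphosphorylated peptide were separated on a LabChip, and IC50 was regressed on log dose.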

For another assay, the target named is T4, DYRK3 (Homo sapiens, UniProt O43781).
T4 construct: purchased Carna Biosciences, Inc. 04-133
T4 sequence (O43781 1-568 isoform O43781-2): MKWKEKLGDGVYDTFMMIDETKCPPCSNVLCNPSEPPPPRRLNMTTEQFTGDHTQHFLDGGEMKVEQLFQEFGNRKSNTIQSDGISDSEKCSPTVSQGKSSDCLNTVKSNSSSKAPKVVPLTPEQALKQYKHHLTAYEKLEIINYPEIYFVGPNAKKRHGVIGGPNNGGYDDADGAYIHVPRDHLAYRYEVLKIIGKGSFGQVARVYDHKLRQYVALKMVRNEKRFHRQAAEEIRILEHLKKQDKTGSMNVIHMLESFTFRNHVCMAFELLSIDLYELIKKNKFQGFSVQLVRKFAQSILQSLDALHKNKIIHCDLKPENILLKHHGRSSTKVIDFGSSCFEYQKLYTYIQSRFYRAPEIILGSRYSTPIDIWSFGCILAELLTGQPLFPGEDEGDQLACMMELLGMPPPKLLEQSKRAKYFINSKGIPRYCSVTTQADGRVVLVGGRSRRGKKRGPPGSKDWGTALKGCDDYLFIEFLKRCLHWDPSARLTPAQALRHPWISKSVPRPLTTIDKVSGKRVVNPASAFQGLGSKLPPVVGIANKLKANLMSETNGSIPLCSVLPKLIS
The experiment in a line: Inhibition test on activity of DYRK family, mobility shift assay (MSA): DYRK3. A digest of the protocol:
as §1

The mark [1] stands for this setting: MSA, FITC-labeled DYRKtide peptide, ATP 100 μM, read-out: Inhibitory activity DYRK 1A (IC50 class).
Setting [2] is: MSA, FITC-labeled DYRKtide peptide, ATP 200 μM, read-out: Inhibitory activity DYRK 1B (IC50 class).
Where [3] appears, read: MSA, FITC-labeled DYRKtide peptide, ATP 40 μM, read-out: Inhibitory activity DYRK 2 (IC50 class).
Where [4] appears, read: MSA, FITC-labeled DYRKtide peptide, ATP 20 μM, read-out: Inhibitory activity DYRK 3 (IC50 class).
[5] abbreviates: read-out: Inhibitory activity DYRK 1A.
The mark [6] stands for this setting: read-out: Inhibitory activity DYRK 1B.
Where [7] appears, read: read-out: Inhibitory activity DYRK 2.
[8] abbreviates: read-out: Inhibitory activity DYRK 3.

pIC50: −log10 of the molar value. Like-named read-outs stand apart in the source and are kept apart here.

With `C[C@H]1NC(=O)N(c2nc3c4c(ccc3s2)OCC4)[C@@H]1CN1CCOCC1` [Example 24, (4R,5R)-1-(7,8-dihydrofuro[3,2-e][1,3]benzothiazol-2-yl)-4-methyl-5-[(morpholin-4-yl)methyl]imidazolidin-2-one], the pIC50 at DYRK1A (setting [1]) is 7.00 to 8.00; on DYRK1B (setting [2]) it was 7.00 to 8.00; on DYRK2 (setting [3]), at most 6.00; on DYRK3 (setting [4]) it was at most 6.00.

Regarding `C[C@H]1C[C@@H]2[C@H](CO1)NC(=O)N2c1nc2c3c(ccc2s1)OCC3` [Example 38, (3aR,6S,7aR)-1-(7,8-dihydrofuro[3,2-e][1,3]benzothiazol-2-yl)-6-methylhexahydropyrano[3,4-d]imidazol-2(3H)-one], the pIC50 is above 8.00 on DYRK1A (setting [1]), above 8.00 on DYRK1B (setting [2]), 6.00 to 7.00 on DYRK2 (setting [3]) and 6.00 to 7.00 on DYRK3 (setting [4]).

Turning to `C[C@H]1C[C@@H]2[C@H](CO1)NC(=O)N2c1nc2c3c(ccc2s1)OCCO3` [Example 39, (3aR,6S,7aR)-1-(7,8-dihydro[1,4]dioxino[2,3-e][1,3]benzothiazol-2-yl)-6-methylhexahydropyrano[3,4-d]imidazol-2(3H)-one], the pIC50 on DYRK1A (setting [1]) was above 8.00; at DYRK1B (setting [2]), above 8.00; on DYRK2 (setting [3]), 6.00 to 7.00; on DYRK3 (setting [4]), 6.00 to 7.00.

With `O=C1N[C@H]2CO[C@@H](CF)C[C@H]2N1c1nc2c3c(ccc2s1)OCC3` [Example 40, (3aR,6R,7aR)-1-(7,8-dihydrofuro[3,2-e][1,3]benzothiazol-2-yl)-6-(fluoromethyl)hexahydropyrano[3,4-d]imidazol-2(3H)-one], the pIC50 at DYRK1A (setting [1]) was above 8.00; at DYRK1B (setting [2]), above 8.00; on DYRK2 (setting [3]), 6.00 to 7.00; at DYRK3 (setting [4]), 7.00 to 8.00.

With `O=C1N[C@H]2CO[C@@H](CF)C[C@H]2N1c1nc2c3c(ccc2s1)OCCO3` [Example 41, (3aR,6R,7aR)-1-(7,8-dihydro[1,4]dioxino[2,3-e][1,3]benzothiazol-2-yl)-6-(fluoromethyl)hexahydropyrano[3,4-d]imidazol-2(3H)-one], the pIC50 at DYRK1A (setting [1]) is above 8.00; on DYRK1B (setting [2]), above 8.00; at DYRK2 (setting [3]) it was 6.00 to 7.00; on DYRK3 (setting [4]), 7.00 to 8.00.

On to `CC[C@H]1C[C@@H]2[C@H](CO1)NC(=O)N2c1nc2c3c(ccc2s1)OCC3` [Example 42, (3aR,6S,7aR)-1-(7,8-dihydrofuro[3,2-e][1,3]benzothiazol-2-yl)-6-ethylhexahydropyrano[3,4-d]imidazol-2(3H)-one], for which the pIC50 on DYRK1A (setting [1]) was above 8.00; on DYRK1B (setting [2]) it was above 8.00; at DYRK2 (setting [3]), 6.00 to 7.00; on DYRK3 (setting [4]), 6.00 to 7.00.

For the compound `CC[C@H]1C[C@@H]2[C@H](CO1)NC(=O)N2c1nc2c3c(ccc2s1)OCCO3` [Example 43, (3aR,6S,7aR)-1-(7,8-dihydro[1,4]dioxino[2,3-e][1,3]benzothiazol-2-yl)-6-ethylhexahydropyrano[3,4-d]imidazol-2(3H)-one], the pIC50 is above 8.00 on DYRK1A (setting [1]), above 8.00 on DYRK1B (setting [2]), 6.00 to 7.00 at DYRK2 (setting [3]) and 6.00 to 7.00 on DYRK3 (setting [4]).

Turning to `O=C1N[C@H]2COC[C@H]2N1c1nc2c3c(ccc2s1)OCC3` [Example 119], the pIC50 on DYRK1A (setting [5]), at DYRK1B (setting [6]), at DYRK2 (setting [7]) and at DYRK3 (setting [8]) was 7.00 to 8.00 each time.

Take `O=C1N[C@H]2COCC[C@H]2N1c1nc2c3c(ccc2s1)OCC3` [Example 122, (3aR,7aR)-1-(7,8-dihydrofuro[3,2-e][1,3]benzothiazol-2-yl)hexahydropyrano[3,4-d]imidazol-2(3H)-one]: the pIC50 is above 8.00 at DYRK1A (setting [5]), above 8.00 on DYRK1B (setting [6]), 6.00 to 7.00 at DYRK2 (setting [7]) and 6.00 to 7.00 at DYRK3 (setting [8]).

In the case of `CC[C@H]1C[C@@H]2[C@H](CO1)NC(=O)N2c1nc2c3c(ccc2s1)OCO3` [Example 138, (3aR,6S,7aR)-1-(2H-[1,3]dioxolo[4,5-e][1,3]benzothiazol-7-yl)-6-ethylhexahydropyrano[3,4-d]imidazol-2(3H)-one], the pIC50 is above 8.00 at DYRK1A (setting [1]), above 8.00 on DYRK1B (setting [2]), 6.00 to 7.00 on DYRK2 (setting [3]) and 6.00 to 7.00 at DYRK3 (setting [4]).

`C[C@H]1C[C@@H]2[C@H](CO1)NC(=O)N2c1nc2c3c(ccc2s1)OCO3` [Example 139, (3aR,6S,7aR)-1-(2H-[1,3]dioxolo[4,5-e][1,3]benzothiazol-7-yl]-6-methylhexahydropyrano[3,4-d]imidazol-2(3H)-one]: the pIC50 on DYRK1A (setting [1]) is above 8.00; on DYRK1B (setting [2]), above 8.00; on DYRK2 (setting [3]), 6.00 to 7.00; on DYRK3 (setting [4]), 7.00 to 8.00.

Turning to `O=C1N[C@H]2CO[C@@H](CF)C[C@H]2N1c1nc2c3c(ccc2s1)OCO3` [Example 140, (3aR,6R,7aR)-1-(2H-[1,3]dioxolo[4,5-e][1,3]benzothiazol-7-yl]-6-(fluoromethyl)hexahydropyrano[3,4-d]imidazol-2(3H)-one], the pIC50 at DYRK1A (setting [1]) is above 8.00; at DYRK1B (setting [2]), above 8.00; at DYRK2 (setting [3]), 7.00 to 8.00; on DYRK3 (setting [4]), 7.00 to 8.00.

Consider `O=C1N[C@@H]2[C@@H](CO)OC[C@@H]2N1c1nc2c3c(ccc2s1)OCC3` [Example 158], for which the pIC50 at DYRK1A (setting [1]) was 6.00 to 7.00; at DYRK1B (setting [2]), 6.00 to 7.00; on DYRK2 (setting [3]), at most 6.00; on DYRK3 (setting [4]), at most 6.00.

The values are drawn from patent US20230365589A1, “NOVEL AMINE DERIVATIVES” (Sumitomo Pharma Co., Ltd., priority 2020, published 2023).
